The results in this text go back to patent publication US20110039763A1, “TARGETED ANTIMICROBIAL MOIETIES” (C3 JIAN, INC., priority 2009, published 2011).

Entries after “also recorded” stand apart in the source; their conditions may differ.

For this test, the system named is microorganisms. The test can be described thus: Targeting peptide binding to target microorganisms (Tables 3, 10, 12). Conditions: microorganism(s) the targeting peptide binds; binding in aqueous buffers varied with peptide solubility, preferably 1x PBS.

Take “PF-155 (GRYGDDSKERQGRAQ; Peptide with targeting and/or antimicrobial activity)”: the “Target(s)” value is reported as “C. jeikeium”.
To “PF-158 (VRLESRPADLPE; Peptide with targeting and/or antimicrobial activity)” belongs “S. epidermidis”.
As for “PF-159 (TMAFVEKAQLRVPVGDDLPV; Peptide with targeting and/or antimicrobial activity)”, the entry is “S. epidermidis”.
As for “PF-160 (SFHASLTKNEKPIKSTG; Peptide with targeting and/or antimicrobial activity)”, the entry is “S. epidermidis”; as for “PF-161 (RGRALASTATTRPARRRR; Peptide with targeting and/or antimicrobial activity)”, “S. epidermidis; also recorded: M. luteus; also recorded: E. coli; also recorded: C. jejuni”; as for “PF-162 (GIRRLHSVENLNREISHRMAGLR; Peptide with targeting and/or antimicrobial activity)”, “S. epidermidis and MRSA”.
With “PF-163 (TSWLRAAERQEIGEPTKTFGEKTTSL; Peptide with targeting and/or antimicrobial activity)”, the “Target(s)” value is “S. epidermidis”.
To “PF-165 (GPVSVVASLRRGTTVQRHSQNNHNKGKP; Peptide with targeting and/or antimicrobial activity)” belongs “MRSA and C. jejuni”.
Regarding “PF-166 (SKAVSRKRSI; Peptide with targeting and/or antimicrobial activity)”, the “Target(s)” value is recorded as “E. coli; also recorded: C. jeikeium”.
To “PF-169 (APGSAADSPRSRADD; Peptide with targeting and/or antimicrobial activity)” belongs “S. epidermidis; also recorded: E. coli; also recorded: C. albicans; also recorded: E. faecalis; also recorded: C. jeikeium”.
With “PF-172 (LTGVRRPWRAPWAGTSGWALR; Peptide with targeting and/or antimicrobial activity)”, the “Target(s)” value is “S. epidermidis and M. luteus and E. coli and P. aeruginosa and MRSA and E. faecalis and C. jejuni”.
As for “PF-174 (RGGDSPARRRPGLAGPGGPG; Peptide with targeting and/or antimicrobial activity)”, the entry is “S. epidermidis; also recorded: P. aeruginosa; also recorded: C. jeikeium”; as for “PF-177 (VTSEPGIAHDIRLLPRAAAFR; Peptide with targeting and/or antimicrobial activity)”, “M. luteus and MRSA and E. faecalis and C. jeikeium”; as for “PF-181 (GIAPRRNEWGAVGGR; Peptide with targeting and/or antimicrobial activity)”, “S. epidermidis and M. luteus and E. coli and MRSA and E. faecalis and C. jeikeium”.
With “PF-182 (LPATRDKTRVPASVAGAP; Peptide with targeting and/or antimicrobial activity)”, the “Target(s)” value is given as “S. epidermidis; also recorded: M. luteus; also recorded: E. coli; also recorded: E. faecalis; also recorded: C. jeikeium”.
As for “PF-183 (KPGISVENRQ; Peptide with targeting and/or antimicrobial activity)”, the “Target(s)” value is “S. epidermidis and M. luteus and E. coli and C. albicans and MRSA and E. faecalis and C. jeikeium”.
To “PF-184 (LIADRHIRA; Peptide with targeting and/or antimicrobial activity)” belongs “S. epidermidis and M. luteus and E. coli and P. aeruginosa and C. albicans and MRSA and C. jeikeium”.
In the case of “PF-185 (RPAQARQGPGGLIADRHIRA; Peptide with targeting and/or antimicrobial activity)”, the “Target(s)” value is listed as “E. coli; also recorded: P. aeruginosa”.
As for “PF-187 (EIQKIAKGVSGQVYGPSRQITISKKR; Peptide with targeting and/or antimicrobial activity)”, the entry is “S. epidermidis and M. luteus and E. coli and MRSA”; as for “PF-189 (GNLTRSREAARATQ; Peptide with targeting and/or antimicrobial activity)”, “S. epidermidis and M. luteus and C. albicans and MRSA and E. faecalis and C. jejuni”; as for “PF-193 (PPHCPPGHAKKGWC; Peptide with targeting and/or antimicrobial activity)”, “S. epidermidis and M. luteus and E. coli and MRSA and E. faecalis and C. jejuni”.
To “PF-194 (MKGNKLATAHEQPVKNSAPPL; Peptide with targeting and/or antimicrobial activity)” belongs “C. jeikeium”; to “PF-195 (EMAEGSADDRLRKTPRDC; Peptide with targeting and/or antimicrobial activity)”, “S. epidermidis; also recorded: M. luteus; also recorded: E. faecalis; also recorded: C. jeikeium”.
To “PF-197 (CNALLRRGHPPSAL; Peptide with targeting and/or antimicrobial activity)” belongs “S. epidermidis; also recorded: M. luteus; also recorded: C. albicans; also recorded: E. faecalis; also recorded: C. jejuni”; to “PF-200 (GIELKSLIMAQIERWRQA; Peptide with targeting and/or antimicrobial activity)”, “S. epidermidis and M. luteus and MRSA and E. faecalis and C. jeikeium”; to “PF-201 (GCRPASLSDADPDGR; Peptide with targeting and/or antimicrobial activity)”, “S. epidermidis; also recorded: M. luteus; also recorded: E. coli; also recorded: C. albicans; also recorded: E. faecalis; also recorded: C. jeikeium; also recorded: C. jejuni”.
Turning to “PF-202 (ALNRASLRLALGE; Peptide with targeting and/or antimicrobial activity)”, the “Target(s)” value is “S. epidermidis and M. luteus and E. coli and MRSA and E. faecalis and C. jeikeium and C. jejuni”.
As for “PF-206 (KLRSASKKSLQEKSCGIMPEKPAG; Peptide with targeting and/or antimicrobial activity)”, the entry is “M. luteus; also recorded: C. albicans; also recorded: C. jeikeium; also recorded: C. jejuni”; as for “PF-207 (AAGCRDLGSLSSLVTNPS; Peptide with targeting and/or antimicrobial activity)”, “M. luteus; also recorded: C. jeikeium”; as for “PF-210 (EREDGCDAMPLP; Peptide with targeting and/or antimicrobial activity)”, “S. epidermidis and P. aeruginosa and C. albicans and MRSA and E. faecalis and C. jeikeium and C. jejuni”.
To “PF-213 (MTTGVDFIIEKV; Peptide with targeting and/or antimicrobial activity)” belongs “S. epidermidis”.
As for “PF-214 (GHLRVCWVFSASLLTPFRSATLI; Peptide with targeting and/or antimicrobial activity)”, the entry is “S. mutans; also recorded: S. epidermidis; also recorded: M. luteus; also recorded: E. coli; also recorded: P. aeruginosa; also recorded: A. baumannii”; as for “PF-216 (ESVDKITEALEEDGFPAKVQ; Peptide with targeting and/or antimicrobial activity)”, “S. mutans; also recorded: E. coli”; as for “PF-217 (DWEFTHKTIPQKK; Peptide with targeting and/or antimicrobial activity)”, “S. mutans”.
As for “PF-218 (SETPEKPVGTFFYSIYYKIIL; Peptide with targeting and/or antimicrobial activity)”, the “Target(s)” value is listed as “S. epidermidis; also recorded: M. luteus; also recorded: P. aeruginosa; also recorded: A. baumannii”.
With “PF-219 (FLALAVIAGLFKVILIYAAPYLK; Peptide with targeting and/or antimicrobial activity)”, the “Target(s)” value is “S. epidermidis; also recorded: M. luteus; also recorded: P. aeruginosa; also recorded: A. baumannii”.
As for “PF-221 (VFDNIDINF; Peptide with targeting and/or antimicrobial activity)”, the “Target(s)” value is recorded as “S. epidermidis; also recorded: M. luteus; also recorded: P. aeruginosa”.
On to “PF-223 (VKFCIECQTKLERKRR; Peptide with targeting and/or antimicrobial activity)”, for which the “Target(s)” value is on record as “S. epidermidis; also recorded: M. luteus; also recorded: A. baumannii”.
To “PF-225 (MNCASPEFKKLMELYK; Peptide with targeting and/or antimicrobial activity)” belongs “S. epidermidis”; to “PF-228 (NQLGSQAFAQL; Peptide with targeting and/or antimicrobial activity)”, “S. mutans”.
To “PF-229 (DPILIQIGFTRFALRKAEAEKIEIQVEEGVPA; Peptide with targeting and/or antimicrobial activity)” belongs “S. epidermidis; also recorded: M. luteus; also recorded: P. aeruginosa; also recorded: A. baumannii”; to “PF-230 (EDKPTNTIQEIKPVKWQ; Peptide with targeting and/or antimicrobial activity)”, “S. mutans”; to “PF-231 (AVRDFKKSVREEDEAASLNSPRTIDAQVKTSESTSVKS; Peptide with targeting and/or antimicrobial activity)”, “S. mutans”.
As for “PF-232 (FDQLYALEREGKLDELLA; Peptide with targeting and/or antimicrobial activity)”, the entry is “S. epidermidis; also recorded: M. luteus”; as for “PF-236 (KEIRTATVAELNAKRRLTSAEQALAEVS; Peptide with targeting and/or antimicrobial activity)”, “S. mutans; also recorded: S. epidermidis; also recorded: E. coli; also recorded: C. albicans; also recorded: S. pneumoniae; also recorded: E. faecalis”.
With “PF-237 (YVKPKVGVHE; Peptide with targeting and/or antimicrobial activity)”, the “Target(s)” value is reported as “S. epidermidis”.
As for “PF-238 (RNAVVVTEATFPKYEEEITNYLNRRFGEDWSLKLEKCSVA; Peptide with targeting and/or antimicrobial activity)”, the entry is “S. mutans and S. epidermidis and E. coli and P. aeruginosa and C. albicans and MRSA and S. pneumoniae and E. faecalis”.
